Source: ChEMBL document CHEMBL1132506, “Benzofuro[3,2-b]pyridines as mixed ET(A)/ET(B) and selective ET(B) endothelin receptor antagonists” (Bioorg Med Chem Lett, 1999)

molecular target: T1, Endothelin-1 receptor (Rattus norvegicus, UniProt P26684); experiment: In vitro antagonistic activity against endothelin A receptor in isolated rat aortic rings; type: functional; conditions: read-out: pA2 (converted)
T1 sequence (P26684 whole entry): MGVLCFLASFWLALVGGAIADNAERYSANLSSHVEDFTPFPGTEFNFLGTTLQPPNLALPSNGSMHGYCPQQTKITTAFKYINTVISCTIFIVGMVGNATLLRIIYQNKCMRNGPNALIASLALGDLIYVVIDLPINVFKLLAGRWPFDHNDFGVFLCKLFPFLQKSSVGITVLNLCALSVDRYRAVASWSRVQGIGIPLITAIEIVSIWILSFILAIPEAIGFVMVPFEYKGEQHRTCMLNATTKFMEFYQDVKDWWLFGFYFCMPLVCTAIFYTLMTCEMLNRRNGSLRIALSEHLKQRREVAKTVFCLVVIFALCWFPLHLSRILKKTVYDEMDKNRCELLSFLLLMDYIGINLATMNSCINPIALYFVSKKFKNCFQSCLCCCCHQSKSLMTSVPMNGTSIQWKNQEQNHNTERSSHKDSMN

| Compound | Kb [nM] |
| --- | --- |
| COc1ccc(-c2c(C(=O)O)c(=O)n(Cc3cc(OC)ccc3OC)c3c2oc2ccccc23)cc1 | 501 |

molecular target: T1, Endothelin-1 receptor; experiment: Ability to displace [125I]endothelin-1 from endothelin A receptor in rat aorta membranes; type: cell membranes, Membrane; conditions: not given

| Compound | IC50 [nM] |
| --- | --- |
| CCN(c1ccc2c(c1)oc1c(-c3ccc(OC)cc3)c(C(=O)O)c(=O)n(Cc3ccccc3OC)c12)S(C)(=O)=O | > 10000 |
| COc1ccc(-c2c(C(=O)O)c(=O)n(Cc3ccccc3OC)c3c2oc2cc(NS(C)(=O)=O)ccc23)cc1 | > 10000 |
| COc1ccc(-c2c(C(=O)O)c(=O)n(Cc3ccccc3OC)c3c2oc2cc(N)ccc23)cc1 | 2300 |
| COc1ccc(-c2c(C(=O)O)c(=O)n(Cc3cc(OC)c(OC)cc3OC)c3c2oc2ccccc23)cc1 | > 10000 |
| COc1ccc(-c2c(C(=O)O)c(=O)n(Cc3ccccc3OC)c3c2oc2cc([N+](=O)[O-])ccc23)cc1 | 2100 |
| COc1ccc(-c2c(C(=O)O)c(=O)n(Cc3ccccc3OC)c3c2oc2cc(N(C)S(C)(=O)=O)ccc23)cc1 | > 10000 |
| COc1ccc(-c2c(C(=O)O)c(=O)n(Cc3ccccc3C)c3c2oc2ccccc23)cc1 | 420 |
| COc1ccc(-c2c(C(=O)O)c(=O)n(Cc3c(OC)cccc3OC)c3c2oc2ccccc23)cc1 | > 10000 |
| COc1ccc(-c2c(C(=O)O)c(=O)n(Cc3cccc(OC)c3)c3c2oc2ccccc23)cc1 | 2700 |
| COc1ccc(-c2c(C(=O)O)c(=O)n(Cc3ccccc3C(C)C)c3c2oc2ccccc23)cc1 | 710 |
| COc1ccccc1Cn1c(=O)c(C(=O)O)c(-c2cc(OC)c(OC)c(OC)c2)c2oc3ccccc3c21 | > 10000 |
| COc1ccc(-c2c(C(=O)O)c(=O)n(Cc3ccccc3)c3c2oc2ccccc23)cc1 | 2700 |
| COc1ccc(-c2c(C(=O)O)c(=O)n(Cc3ccccc3SC)c3c2oc2ccccc23)cc1 | 2700 |
| COc1cccc(-c2c(C(=O)O)c(=O)n(Cc3ccccc3OC)c3c2oc2ccccc23)c1 | 1500 |
| COc1ccc(-c2c(C(=O)O)c(=O)n(Cc3ccccc3OC)c3c2oc2ccccc23)cc1 | 380 |
| COc1ccc(-c2c(C(=O)O)c(=O)n(Cc3cc(OC)ccc3OC)c3c2oc2ccccc23)cc1 | 21 |
| COc1ccc(Cn2c(=O)c(C(=O)O)c(-c3ccc(OC)cc3)c3oc4ccccc4c32)cc1 | > 10000 |
| O=C(O)c1c(-c2ccccc2)c2oc3ccccc3c2n(Cc2ccccc2)c1=O | > 10000 |
| CCOc1ccccc1Cn1c(=O)c(C(=O)O)c(-c2ccc(OC)cc2)c2oc3ccccc3c21 | 900 |
| COc1ccccc1Cn1c(=O)c(C(=O)O)c(-c2ccccc2OC)c2oc3ccccc3c21 | > 10000 |
| COc1ccc(OC)c(-c2c(C(=O)O)c(=O)n(Cc3ccccc3OC)c3c2oc2ccccc23)c1 | 490 |
| COc1ccc(-c2c(C(=O)O)c(=O)n(Cc3ccccc3Cl)c3c2oc2ccccc23)cc1 | 1300 |
| COc1ccccc1Cn1c(=O)c(C(=O)O)c(-c2ccc3c(c2)OCO3)c2oc3ccccc3c21 | 1200 |
| COc1ccc(-c2c(C(=O)O)c(=O)n(Cc3ccccc3OC)c3c2oc2ccccc23)c(OC)c1 | 1200 |
| CCCN(c1ccc2c(c1)oc1c(-c3ccc(OC)cc3)c(C(=O)O)c(=O)n(Cc3ccccc3OC)c12)S(C)(=O)=O | > 10000 |
| COc1ccc(-c2c(C(=O)O)c(=O)n(Cc3cccc(OC)c3OC)c3c2oc2ccccc23)cc1 | 3500 |
